Earlier results, collected in paper PMC8994735 (Targeted Oncology, 2021).
Like-named read-outs stand apart in the source and are kept apart here.

How the values were obtained:
Western patients = settings: cited from earlier work
[1] = test system: patients from the United States / Western patients; settings: cited from earlier work
[2] = test system: nonhematologic malignancies/solid tumors, endometrial cancer; settings: phase 2 study in endometrial cancer; single-agent 30 mg QW; cited from earlier work

In the case of CC(C)n1nc(-c2ccc3oc(N)nc3c2)c2c(N)ncnc21 [sapanisertib], the “RP2D in Western patients” value (Western patients; QD, Western patient populations) is given as 4 mg, the “Lowest RP2D in previous studies in Western patients” value (Western patients; QD) is given as 4 mg and the “Lowest RP2D in previous studies in Western patients” value (Western patients; QW) is given as 30 mg. For the same compound, the Incidence of stomatitis ([1]; 20 or 30 mg QW) was 10%, the Incidence of stomatitis ([1]; sapanisertib 2–7 mg QD) was 35% and the Incidence of stomatitis ([1]; sapanisertib 3 or 4 mg QD) was 18%. For the same compound, the Incidence of stomatitis ([1]; sapanisertib 7–40 mg QW) was 30% and the Pre-defined futility threshold [2] was “did not meet a pre-defined futility threshold”.
